Columns and labels:
Format in all cases: cell-based
Conditions in all cases: after 10, 20, 40 and 60 minutes at all dilutions 1:100, 1:200, 1:400, 1:800
[1] = system: Staphylococcus aureus; assay: Antimicrobial screening by agar dilution, Staphylococcus aureus
Description: (§1) The antibacterial properties of the synthesized compound 9-(2-hydroxypyridin-3-yl)-10-(2-hydroxyethyl)-3,6-diphenyl-3,4,6,7,9,10-hexahydroacridine1,8(2H,5H)-dione were studied by the method of agar dilution. Test solutions of each compound was prepared in concentration of 1% using dimethylformamide as a solvent then they are diluted in physiological solution to obtain the final experimental dilutions 1:100, 1:200, 1:400, 1:800. The effect of these substances are compared with furacillin in a controllable study. The testing microbes used were gram positive bacteria Staphylococcus aureus, gram negative bacteria Pseudomonas aeruginosa and Escherichia coli and Candida albicans fungus. The experiments used for this survey were meat-pentonlu agar (EPA) for cultivation of bacteria and Saburo environment for the fungus. Each experiment used 1 mL of test solution on each plate […]. Two drops of emulsified with microbes feel were added. All experimental samples were taken from the agar after 10, 20, 40, 60 minutes in the environment on the basis of Patrk planted. The bacteria were cultivated at a temperature of 37° C. for 1 day and the mushroom was kept in a thermostat for 2 hours at a temperature of 28° C. Then results were checked.

[2] = system: Escherichia coli; assay: Antimicrobial screening by agar dilution, Escherichia coli
Description: as §1

[3] = system: Pseudomonas aeruginosa; assay: Antimicrobial screening by agar dilution, Pseudomonas aeruginosa
Description: as §1

[4] = system: Candida albicans; assay: Antimicrobial screening by agar dilution, Candida albicans
Description: as §1

Measured: inhibition activity (in words)

O=C1CC(c2ccccc2)CC2=C1C(c1cccnc1O)C1=C(CC(c3ccccc3)CC1=O)N2CCO (stereo not shown) [9-(2-hydroxypyridin-3-yl)-10-(2-hydroxyethyl)-3,6-diphenyl-3,4,6,7,9,10-hexahydroacridine1,8(2H,5H)-dione]
highest inhibition activity: [1] | [2] | [3] | [4]
